Like-named read-outs stand apart in the source and are kept apart here.
Key:
[1] = test system: cAMP response element-binding protein (CREB); test: pCREB phosphorylation in rat primary neurons (Example 12); type: cell-based; conditions: Primary neuron, 10 μM DETA-NONOate
Source text: Objective. To assess the ability of Compound I-1 to activate cAMP response element-binding protein (CREB) in rat primary neurons. CREB is a cellular transcription factor. It binds to DNA sequences called cAMP response elements (CRE), and regulates transcription of the downstream genes (See Bourtchuladze R, et al., Cell 1994; 79 (1): 59-68). […] CREB proteins are activated by phosphorylation of Serine 133 by various kinases, including cAMP-dependent protein kinase or Protein Kinase A (PKA), cGMP-dependent protein kinase or Protein Kinase G (PKG), and Ca2+/calmodulin-dependent protein kinases. (See Shaywitz A J and Greenberg M E, Annual Review of Biochemistry 1999; 68 (1): 821-861 and Wong J C, et al., J Cell Biochem 2012: 113(11):3587-98). Stimulation of CREB could have therapeutic benefits for diseases in which cognition, neuronal plasticity, and or neuronal function is impaired.
Compounds. Compound I-1 was dissolved in DMSO as a 10 mM solution and stored at −20° C. […]
Assay Conditions. […] Medium was removed and cell were lysed and assay was performed according to Cisbio protocol (phospho-CREB (Ser133) catalog #64CREPEG) and the plate was read using Envision instrument (PerkinElmer).
Data Analysis. Data were analyzed with a 4-parameter fit (log(agonist) vs. response—variable slope) using GraphPad Prism Software v.7. […]

rats [2] = test: Post-operative pain: Brennan model, electronic Von Frey test (Example 13); type: in vivo, rat; conditions: Compound I-1 p.o. 10 mg/kg, 120 minutes after treatment
Source text: Surgery: Surgery was done under gas anesthesia (2.5% isoflurane/3 L/min). For all rats, the plantar aspect of the left hind paw was exposed and a 1 cm longitudinal incision was made using a surgical blade, through the skin and fascia of the plantar aspect of the foot, starting 0.5 cm from the proximal edge of the heel and extending toward the toes. The plantaris muscle was elevated and incised longitudinally whereas the insertions remained intact. After hemostasis with gentle pressure, the skin was stitched up with two sutures. After surgery, animals recovered in their cages.
Electronic Von Frey Test: Tactile allodynia was assessed using the electronic Von Frey test 24 h after surgery. […] The apparatus exerted a steady force on the hind paws. […] Each reaction threshold measurement was repeated three times for both hind paws with intervals of approximately 2 to 3 mins.

rats [3] = test: Acute and tonic pain: formalin test, score (Example 13); type: in vivo, rat; conditions: Compound I-1 p.o. 10 mg/kg, 120 minutes after treatment
Procedure: Formalin Test. 2.5% formalin solution was injected by subplantar route into the right hind paw. Scoring of pain behavior was performed in rats for 36 minutes every 3 minutes according to the following scores:
0=normal behavior of the injected hind limb to support the body
1=slight touching of the injected paw on the floor to lightly support or not support the body
2=total withdrawal of the injected paw
3=licking, biting or shaking of the injected paw

rats [4] = test: Acute and tonic pain: healthy rats, tail flick test (Example 13); conditions: Compound I-1 p.o. 10 mg/kg, 120 minutes after treatment

EC50 ([1]; read-out: 95% confidence interval of EC50, phosphorylation of CREB at Ser133): 0.5 to 17.8 nM | EC50 ([1]; 0.5 h, 30 min, read-out: EC50, phosphorylation of CREB at Ser133): 3 nM
Compound: Fc1ccccc1Cc1nc(-c2nc(C(F)(F)F)n[nH]2)cn2ccnc12 [Compound I-1, 8-(2-fluorobenzyl)-6-(3-(trifluoromethyl)-1H-1,2,4-triazol-5-yl)imidazo[1,2-a]pyrazine]
% of activity vs. vehicle (rats [2]): 31% | % of activity vs. vehicle (rats [3]; Formalin test - score (early phase)): 57% | % of activity vs. vehicle (rats [3]; Formalin test - score (late phase)): 32% | % of activity vs. vehicle (rats [4]): 25%
